Measured values taken from patent US20160375006A1, “USES OF PARALOG-SELECTIVE INHIBITORS OF GSK3 KINASES” (priority 2012, published 2016).
Where two headings read alike, the source gives them in different places.

What was measured:
[1] = target: ABL (Homo sapiens, UniProt P00519)
Procedure: (§1) This was completed utilizing one of two assays depending on the kinase being examined.
(§2) A solution of IMAP binding reagent (IMAP Screening Express kit; Molecular Devices) (60 μL) was added to each well and incubated for 30 minutes.
(§3) A solution of termination buffer (QuickScout Screening assist MSA; Carna Biosciences) (60 μL) was added to each well. The entire reaction mixture was then applied to a LabChip3000 system (Caliper Life Science) and the product and substrate peptide peaks were separated and quantified.
(§4) The assay utilized was identical to that of the single point inhibitory activity determination (MSA) but run in dose response. […] A solution of termination buffer (QuickScout Screening assist MSA; Carna Biosciences) (60 μL) was added to each well. The entire reaction mixture was then applied to a LabChip3000 system (Caliper Life Science) and the product and substrate peptide peaks were separated and quantified.

[2] = target: FLT4 (Homo sapiens, UniProt P35916)
Procedure: as §1, §2, §3, §4

[3] = target: JAK3 (Homo sapiens, UniProt P52333)
Procedure: as §1, §2, §3, §4

[4] = target: TRKA (Homo sapiens, UniProt P04629)
Procedure: as §1, §2, §3, §4

[5] = target: EPHA2 (Homo sapiens, UniProt P29317)
Procedure: as §1, §2, §3, §4

[6] = target: JNK1 (Homo sapiens, UniProt P45983)
Procedure: as §1, §2, §3, §4

[7] = target: MSK2 (Homo sapiens, UniProt O75676)
Procedure: as §1, §2, §3, §4

[8] = target: RON (Homo sapiens, UniProt Q04912)
Procedure: as §1, §2, §3, §4

[9] = target: Haspin (Homo sapiens, UniProt Q8TF76)
Procedure: as §1, §2, §3, §4

[10] = target: PAK1 (Homo sapiens, UniProt Q13153)
Procedure: as §2, §3, §4

[11] = target: WNK1 (Homo sapiens, UniProt Q9H4A3)
Source text: as §1
(§5) The assay utilized was identical to that of the single point inhibitory activity determination (MSA) but run in dose response.

[12] = target: KIT(V654A) (Homo sapiens, UniProt P10721, V654A)
Procedure: as §1, §2, §3, §4

[13] = target: p70S6K (Homo sapiens, UniProt P23443)
Procedure: as §1, §2, §3, §4

[14] = target: KIT(V560G) (Homo sapiens, UniProt P10721, V560G)
Procedure: as §1, §2, §3, §4

[15] = target: T1, Erk5 (Homo sapiens, UniProt Q13164); test: Carna kinase panel; format: biochemical
T1 construct: purchased Carna Biosciences
Procedure: as §1, §2, §3

[16] = target: IGF1R (Homo sapiens, UniProt P08069)
Procedure: as §1, §2, §3, §4

[17] = target: MST2 (Homo sapiens, UniProt Q13188)
Procedure: as §1, §2, §3

[18] = target: PKACβ (Homo sapiens, UniProt P22694)
Procedure: as §1, §2, §3, §4

[19] = target: MLK1_Cascade (Homo sapiens, UniProt P80192)
Procedure: as §1, §3, §5

[20] = target: CDK5/p25 (Homo sapiens, UniProt Q00535)
Procedure: as §1, §2, §3, §4

[21] = target: MLK3_Cascade (Homo sapiens, UniProt Q16584)
Procedure: as §1, §2, §3, §4

[22] = target: CLK1 (Homo sapiens, UniProt P49759); test: Carna kinase panel; format: biochemical
Procedure: as §1, §2, §3

[23] = target: FAK (Homo sapiens, UniProt Q05397)
Procedure: as §1, §2, §3, §4

[24] = target: PDK1 (Homo sapiens, UniProt O15530)
Procedure: as §1, §2, §3, §4

[25] = target: NuaK1 (Homo sapiens, UniProt O60285)
Procedure: as §1, §2, §3, §4

[26] = target: skMLCK (Homo sapiens, UniProt Q9H1R3)
Procedure: as §1, §2, §3, §4

[27] = target: MAP2K1_Cascade (Homo sapiens, UniProt Q02750)
Procedure: as §1, §2, §3, §4

[28] = target: DYRK3 (Homo sapiens, UniProt O43781)
Procedure: as §1, §2, §3, §4

[29] = target: CaMK2β (Homo sapiens, UniProt Q13554)
Procedure: as §1, §2, §3, §4

[30] = target: CHK1 (Homo sapiens, UniProt O14757)
Procedure: as §1, §2, §3, §4

[31] = target: IKKε (Homo sapiens, UniProt Q14164)
Procedure: as §1, §2, §3, §4

[32] = target: CDK7/CycH/MAT1 (Homo sapiens, UniProt P50613)
Procedure: as §1, §2, §3, §4

[33] = target: SGK2 (Homo sapiens, UniProt Q9HBY8)
Procedure: as §1, §2, §3, §4

[34] = target: MET (Homo sapiens, UniProt P08581)
Procedure: as §2, §3, §4

[35] = target: FGFR4 (Homo sapiens, UniProt P22455)
Procedure: as §1, §2, §3

[36] = target: CLK3 (Homo sapiens, UniProt P49761)
[37] = system: MAP3K4_Cascade
Source text: as §1, §5

[38] = target: FGFR2 (Homo sapiens, UniProt P21802)
Procedure: as §1, §2, §3

[39] = target: ARG (Homo sapiens, UniProt P42684)
Procedure: as §1, §2, §3

[40] = target: PDGFRβ (Homo sapiens, UniProt P09619)
Procedure: as §1, §2, §3, §4

[41] = target: SRPK2 (Homo sapiens, UniProt P78362)
Procedure: as §2, §3, §4

Sequence of CDK5/p25 (Q00535 whole entry, species assumed): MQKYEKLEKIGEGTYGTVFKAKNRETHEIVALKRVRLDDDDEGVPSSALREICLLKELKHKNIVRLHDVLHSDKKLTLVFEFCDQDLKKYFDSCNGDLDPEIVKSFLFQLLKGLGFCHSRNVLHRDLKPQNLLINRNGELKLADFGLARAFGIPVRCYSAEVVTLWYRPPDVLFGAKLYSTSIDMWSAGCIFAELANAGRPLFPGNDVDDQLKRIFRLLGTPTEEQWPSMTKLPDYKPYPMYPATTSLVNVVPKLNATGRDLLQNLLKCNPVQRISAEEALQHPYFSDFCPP
Sequence of CDK5/p25 (Q15078 99-307 partner limits assumed, species assumed): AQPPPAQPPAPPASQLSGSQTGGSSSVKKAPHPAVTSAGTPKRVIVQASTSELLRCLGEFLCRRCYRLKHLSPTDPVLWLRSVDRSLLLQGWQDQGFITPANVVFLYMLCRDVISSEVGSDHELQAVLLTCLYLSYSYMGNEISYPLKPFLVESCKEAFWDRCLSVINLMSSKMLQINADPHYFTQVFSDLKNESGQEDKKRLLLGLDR
Sequence of CaMK2β (Q13554 whole entry): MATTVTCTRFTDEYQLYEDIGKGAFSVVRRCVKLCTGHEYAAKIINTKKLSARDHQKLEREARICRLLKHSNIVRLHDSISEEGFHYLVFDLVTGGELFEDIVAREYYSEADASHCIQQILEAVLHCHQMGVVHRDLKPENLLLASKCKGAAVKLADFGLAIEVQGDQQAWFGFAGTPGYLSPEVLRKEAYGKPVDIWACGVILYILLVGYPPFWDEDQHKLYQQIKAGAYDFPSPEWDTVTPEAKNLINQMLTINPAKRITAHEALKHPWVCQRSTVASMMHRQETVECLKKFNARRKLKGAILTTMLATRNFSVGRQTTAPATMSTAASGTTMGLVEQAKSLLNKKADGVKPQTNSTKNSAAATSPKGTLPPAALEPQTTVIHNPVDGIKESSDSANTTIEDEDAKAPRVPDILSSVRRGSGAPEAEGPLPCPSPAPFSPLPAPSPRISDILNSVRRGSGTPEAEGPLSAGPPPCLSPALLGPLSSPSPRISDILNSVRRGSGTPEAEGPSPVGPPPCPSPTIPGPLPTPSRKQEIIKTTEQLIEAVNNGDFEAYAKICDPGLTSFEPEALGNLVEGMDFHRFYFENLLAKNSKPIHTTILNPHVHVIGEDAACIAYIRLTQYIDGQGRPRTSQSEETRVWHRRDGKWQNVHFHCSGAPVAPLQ
Sequence of FAK (Q05397 whole entry): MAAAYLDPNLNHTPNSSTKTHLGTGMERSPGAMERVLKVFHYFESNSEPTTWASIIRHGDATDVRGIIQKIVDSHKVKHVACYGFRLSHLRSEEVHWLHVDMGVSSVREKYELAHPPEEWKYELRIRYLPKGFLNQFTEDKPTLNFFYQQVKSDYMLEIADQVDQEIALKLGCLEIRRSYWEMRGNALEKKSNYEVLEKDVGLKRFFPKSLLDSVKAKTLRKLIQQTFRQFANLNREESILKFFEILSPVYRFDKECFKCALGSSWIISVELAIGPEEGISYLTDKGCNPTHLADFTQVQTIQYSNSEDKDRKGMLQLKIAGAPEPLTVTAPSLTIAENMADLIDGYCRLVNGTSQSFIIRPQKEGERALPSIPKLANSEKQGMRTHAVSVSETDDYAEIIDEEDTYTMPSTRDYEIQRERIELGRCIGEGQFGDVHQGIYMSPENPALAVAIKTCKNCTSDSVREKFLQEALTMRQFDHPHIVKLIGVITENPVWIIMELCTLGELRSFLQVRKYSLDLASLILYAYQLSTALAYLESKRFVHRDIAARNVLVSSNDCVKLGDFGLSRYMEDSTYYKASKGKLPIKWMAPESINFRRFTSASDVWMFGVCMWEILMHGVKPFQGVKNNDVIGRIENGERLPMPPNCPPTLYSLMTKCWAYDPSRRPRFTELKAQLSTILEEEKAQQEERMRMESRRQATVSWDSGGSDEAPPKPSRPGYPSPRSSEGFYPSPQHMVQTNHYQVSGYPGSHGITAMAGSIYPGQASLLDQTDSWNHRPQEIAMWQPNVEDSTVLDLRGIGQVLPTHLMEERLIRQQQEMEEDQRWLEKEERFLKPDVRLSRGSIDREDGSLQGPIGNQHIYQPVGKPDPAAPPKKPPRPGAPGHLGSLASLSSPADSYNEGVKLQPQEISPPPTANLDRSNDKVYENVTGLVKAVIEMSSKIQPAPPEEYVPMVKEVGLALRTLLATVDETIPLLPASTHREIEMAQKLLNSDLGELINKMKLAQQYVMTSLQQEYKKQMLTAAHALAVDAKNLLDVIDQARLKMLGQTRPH
Sequence of MAP2K1_Cascade (Q02750 whole entry): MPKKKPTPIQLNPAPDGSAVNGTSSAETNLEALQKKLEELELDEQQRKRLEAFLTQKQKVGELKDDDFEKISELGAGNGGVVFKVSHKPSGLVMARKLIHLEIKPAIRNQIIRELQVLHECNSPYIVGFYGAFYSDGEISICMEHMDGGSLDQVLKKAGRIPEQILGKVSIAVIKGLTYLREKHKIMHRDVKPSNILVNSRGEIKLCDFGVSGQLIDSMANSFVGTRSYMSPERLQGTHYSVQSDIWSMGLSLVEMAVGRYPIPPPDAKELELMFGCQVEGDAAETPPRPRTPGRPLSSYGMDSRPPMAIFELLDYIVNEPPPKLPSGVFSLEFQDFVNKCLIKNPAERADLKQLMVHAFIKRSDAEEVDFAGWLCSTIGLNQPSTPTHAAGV
Sequence of FGFR2 (P21802 22-821): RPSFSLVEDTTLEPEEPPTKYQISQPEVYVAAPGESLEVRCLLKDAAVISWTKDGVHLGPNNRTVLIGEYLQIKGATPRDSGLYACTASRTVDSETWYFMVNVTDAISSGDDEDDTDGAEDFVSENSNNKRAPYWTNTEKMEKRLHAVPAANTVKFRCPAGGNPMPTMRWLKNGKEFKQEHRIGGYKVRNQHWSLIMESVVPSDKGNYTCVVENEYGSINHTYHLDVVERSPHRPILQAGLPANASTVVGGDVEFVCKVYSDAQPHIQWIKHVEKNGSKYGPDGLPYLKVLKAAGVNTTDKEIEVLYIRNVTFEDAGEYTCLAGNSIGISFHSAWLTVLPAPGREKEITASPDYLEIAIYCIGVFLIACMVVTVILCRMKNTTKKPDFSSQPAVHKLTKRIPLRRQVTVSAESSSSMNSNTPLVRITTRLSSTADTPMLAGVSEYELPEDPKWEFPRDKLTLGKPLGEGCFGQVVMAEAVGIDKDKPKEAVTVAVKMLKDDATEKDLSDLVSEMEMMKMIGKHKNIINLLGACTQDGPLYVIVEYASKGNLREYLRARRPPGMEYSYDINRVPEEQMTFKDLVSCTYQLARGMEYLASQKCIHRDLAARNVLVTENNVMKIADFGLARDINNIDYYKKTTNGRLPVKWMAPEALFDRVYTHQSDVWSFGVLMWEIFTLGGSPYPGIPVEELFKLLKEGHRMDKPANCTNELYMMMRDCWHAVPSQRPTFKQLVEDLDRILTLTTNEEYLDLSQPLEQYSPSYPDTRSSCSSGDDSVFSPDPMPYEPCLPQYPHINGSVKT
Sequence of CHK1 (O14757 whole entry): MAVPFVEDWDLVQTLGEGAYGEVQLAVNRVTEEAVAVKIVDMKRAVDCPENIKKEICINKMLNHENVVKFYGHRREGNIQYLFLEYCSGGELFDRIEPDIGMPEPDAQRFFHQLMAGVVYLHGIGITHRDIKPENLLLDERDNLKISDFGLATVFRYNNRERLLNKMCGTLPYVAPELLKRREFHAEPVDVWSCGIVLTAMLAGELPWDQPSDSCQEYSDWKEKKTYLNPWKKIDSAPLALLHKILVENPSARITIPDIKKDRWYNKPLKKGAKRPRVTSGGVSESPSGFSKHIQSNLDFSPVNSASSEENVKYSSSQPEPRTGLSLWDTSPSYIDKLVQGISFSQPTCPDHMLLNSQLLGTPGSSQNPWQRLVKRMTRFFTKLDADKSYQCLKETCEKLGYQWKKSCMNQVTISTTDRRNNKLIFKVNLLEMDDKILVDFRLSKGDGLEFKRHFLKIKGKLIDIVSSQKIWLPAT
Sequence of CLK1 (P49759 whole entry): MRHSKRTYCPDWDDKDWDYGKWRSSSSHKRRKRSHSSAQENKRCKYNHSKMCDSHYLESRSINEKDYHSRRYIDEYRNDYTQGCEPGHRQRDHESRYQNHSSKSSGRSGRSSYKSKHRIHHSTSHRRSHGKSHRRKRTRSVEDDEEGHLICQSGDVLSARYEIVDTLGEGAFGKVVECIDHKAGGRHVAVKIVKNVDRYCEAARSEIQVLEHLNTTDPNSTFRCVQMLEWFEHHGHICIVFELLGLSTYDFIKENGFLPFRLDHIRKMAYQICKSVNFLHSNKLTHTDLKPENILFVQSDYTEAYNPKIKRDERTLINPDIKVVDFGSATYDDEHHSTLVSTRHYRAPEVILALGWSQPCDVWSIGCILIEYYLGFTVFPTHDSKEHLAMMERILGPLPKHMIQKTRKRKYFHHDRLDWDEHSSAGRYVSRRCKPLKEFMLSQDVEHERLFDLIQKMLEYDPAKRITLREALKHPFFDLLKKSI
Sequence of PDK1 (O15530 whole entry): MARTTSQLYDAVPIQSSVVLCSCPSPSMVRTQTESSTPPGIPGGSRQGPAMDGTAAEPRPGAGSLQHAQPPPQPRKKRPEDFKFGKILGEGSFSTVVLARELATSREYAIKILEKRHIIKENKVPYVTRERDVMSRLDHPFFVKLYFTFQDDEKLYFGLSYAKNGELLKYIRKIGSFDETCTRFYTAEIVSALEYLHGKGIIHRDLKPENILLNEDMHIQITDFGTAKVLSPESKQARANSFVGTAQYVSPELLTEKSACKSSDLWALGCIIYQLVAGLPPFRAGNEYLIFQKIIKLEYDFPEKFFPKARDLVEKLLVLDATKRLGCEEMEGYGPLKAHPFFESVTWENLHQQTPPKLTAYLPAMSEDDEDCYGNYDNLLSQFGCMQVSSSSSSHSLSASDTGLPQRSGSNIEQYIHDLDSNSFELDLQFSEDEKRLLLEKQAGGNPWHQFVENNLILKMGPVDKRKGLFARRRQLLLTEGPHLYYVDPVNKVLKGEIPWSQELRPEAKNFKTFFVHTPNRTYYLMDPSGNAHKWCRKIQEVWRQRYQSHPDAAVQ

CC[C@@]1(c2ccccc2)C2=C(CC(C)(C)CC2=O)Nc2n[nH]cc21 [BRD0705]
% Inhibition at 10 μM [1]: 4.2% | % Inhibition at 10 μM [2]: −7.9% | % Inhibition at 10 μM [3]: 4.1% | % Inhibition at 10 μM [4]: 2.9% | % Inhibition at 10 μM [5]: −2.6% | % Inhibition at 10 μM [6]: −3.9% | % Inhibition at 10 μM [7]: −2.5% | % Inhibition at 10 μM [8]: −3.8% | % Inhibition at 10 μM [9]: −5.1% | % Inhibition at 10 μM [10]: −2.9% | % Inhibition at 10 μM [11]: −4.2% | % Inhibition at 10 μM [12]: −1.0% | % Inhibition at 10 μM [13]: −7.8% | % Inhibition at 10 μM [14]: −1.7% | % Inhibition at 10 μM [15]: −7.9% | % Inhibition at 10 μM [16]: −2.5% | % Inhibition at 10 μM [17]: −3.4% | % Inhibition at 10 μM [18]: −7.7% | % Inhibition at 10 μM [19]: 6.3% | % Inhibition at 10 μM ([20]; CDK5/p25): 52.0% | IC50 ([20]; read-out: IC50 CDK5/p25): 9.2 µM | % Inhibition at 10 μM [21]: 4.6% | % Inhibition at 10 μM [22]: −7.1% | % Inhibition at 10 μM [23]: −3.9% | % Inhibition at 10 μM [24]: −6.7% | % Inhibition at 10 μM [25]: −2.0% | % Inhibition at 10 μM [26]: −2.5% | % Inhibition at 10 μM [27]: 3.0% | % Inhibition at 10 μM [28]: 7.7% | % Inhibition at 10 μM [29]: −9.0% | % Inhibition at 10 μM [30]: 2.9% | % Inhibition at 10 μM [31]: −4.5% | % Inhibition at 10 μM [32]: 8.3% | % Inhibition at 10 μM [33]: 0.8% | % Inhibition at 10 μM [34]: −2.4% | % Inhibition at 10 μM [35]: −13.4% | % Inhibition at 10 μM [36]: −1.5% | % Inhibition at 10 μM [37]: 11.6% | % Inhibition at 10 μM [38]: −9.2% | % Inhibition at 10 μM [39]: 1.1% | % Inhibition at 10 μM [40]: 0.3% | % Inhibition at 10 μM [41]: −2.5%

CC(C)(C)Cc1[nH]nc2c1[C@](C)(c1ccccc1)C1=C(CC(C)(C)CC1=O)N2 [BRD3731]
% Inhibition 10 μM ([1]; 10 μM): 11.4% | % Inhibition 10 μM ([2]; 10 μM): 16.8% | % Inhibition 10 μM ([3]; 10 μM): 7.8% | % Inhibition 10 μM ([4]; 10 μM): 12.0% | % Inhibition 10 μM ([5]; 10 μM): 3.2% | % Inhibition 10 μM ([6]; 10 μM): −6.0% | % Inhibition 10 μM ([7]; 10 μM): 12.6% | % Inhibition 10 μM ([8]; 10 μM): 2.3% | % Inhibition 10 μM ([9]; 10 μM): 5.3% | % Inhibition 10 μM ([10]; 10 μM): −18.6% | % Inhibition 10 μM ([11]; 10 μM): −1.0% | % Inhibition 10 μM ([12]; 10 μM): −1.9% | % Inhibition 10 μM ([13]; 10 μM): 12.5% | % Inhibition 10 μM ([14]; 10 μM): 1.4% | % Inhibition 10 μM ([15]; 10 μM): 4.5% | % Inhibition 10 μM ([16]; 10 μM): −1.5% | % Inhibition 10 μM ([17]; 10 μM): 1.5% | % Inhibition 10 μM ([18]; 10 μM): 9.3% | % Inhibition 10 μM ([19]; 10 μM): −9.4% | IC50 ([20]; CDK5/p25): 8.9 µM | % Inhibition 10 μM ([20]; CDK5/p25, 10 μM): 48.3% | Fold Selectivity ([20]; IC50 CDK5/p25 / IC50 GSK3β): 331.0 fold | % Inhibition 10 μM ([21]; 10 μM): −0.8% | % Inhibition 10 μM ([22]; 10 μM): 3.1% | % Inhibition 10 μM ([23]; 10 μM): 2.3% | % Inhibition 10 μM ([24]; 10 μM): 2.0% | % Inhibition 10 μM ([25]; 10 μM): −0.9% | % Inhibition 10 μM ([26]; 10 μM): 9.4% | % Inhibition 10 μM ([27]; 10 μM): 3.1% | % Inhibition 10 μM ([28]; 10 μM): 16.0% | % Inhibition 10 μM ([29]; 10 μM): 0.3% | % Inhibition 10 μM ([30]; 10 μM): −16.4% | % Inhibition 10 μM ([31]; 10 μM): −1.4% | % Inhibition 10 μM ([32]; 10 μM): 21.3% | % Inhibition 10 μM ([33]; 10 μM): 10.4% | % Inhibition 10 μM ([34]; 10 μM): −0.8% | % Inhibition 10 μM ([35]; 10 μM): −8.1% | % Inhibition 10 μM ([36]; 10 μM): 4.0% | % Inhibition 10 μM ([37]; 10 μM): 12.4% | % Inhibition 10 μM ([38]; 10 μM): 1.9% | % Inhibition 10 μM ([39]; 10 μM): 6.4% | % Inhibition 10 μM ([40]; 10 μM): 3.1% | % Inhibition 10 μM ([41]; 10 μM): 6.4%
